From PubChem BioAssay (NCI)
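Cultured in 96-well plates, cells were exposed to test compound for 48 hours across five concentrations. TGI: concentration producing complete growth inhibition.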

Columns and labels:
Assay in all cases: growth of human tumour cells (NCI), 48 h
EKVX NSCLC = test system: EKVX NSCLC
HS 578T breast = test system: HS 578T breast
T-47D breast = test system: T-47D breast
COLO 205 colon = test system: COLO 205 colon
PC-3 prostate = test system: PC-3 prostate
MALME-3M melanoma = test system: MALME-3M melanoma
OVCAR-3 ovarian = test system: OVCAR-3 ovarian
NCI-H460 lung = test system: NCI-H460 lung
OVCAR-8 ovarian = test system: OVCAR-8 ovarian
HT29 colon = test system: HT29 colon
HCT-15 colon = test system: HCT-15 colon
LOX IMVI melanoma = test system: LOX IMVI melanoma
SR leukemia = test system: SR leukemia
SF-268 CNS = test system: SF-268 CNS
UACC-62 melanoma = test system: UACC-62 melanoma
NCI-H522 lung = test system: NCI-H522 lung
SK-MEL-2 melanoma = test system: SK-MEL-2 melanoma
MDA-N = test system: MDA-N
SW-620 colon = test system: SW-620 colon
A549 NSCLC = test system: A549 NSCLC
MDA-MB-231 breast = test system: MDA-MB-231 breast
OVCAR-4 ovarian = test system: OVCAR-4 ovarian
SN12C renal = test system: SN12C renal
786-0 renal = test system: 786-0 renal
HCT-116 colon = test system: HCT-116 colon
DU-145 prostate = test system: DU-145 prostate
HOP-62 NSCLC = test system: HOP-62 NSCLC
SK-OV-3 ovarian = test system: SK-OV-3 ovarian
ACHN renal = test system: ACHN renal
IGROV1 ovarian = test system: IGROV1 ovarian
SF-295 CNS = test system: SF-295 CNS
SNB-75 CNS = test system: SNB-75 CNS
MOLT-4 leukemia = test system: MOLT-4 leukemia
M14 melanoma = test system: M14 melanoma
SK-MEL-5 melanoma = test system: SK-MEL-5 melanoma
UACC-257 melanoma = test system: UACC-257 melanoma
NCI/ADR-RES ovarian = test system: NCI/ADR-RES ovarian
CAKI-1 renal = test system: CAKI-1 renal
SK-MEL-28 melanoma = test system: SK-MEL-28 melanoma
RPMI-8226 leukemia = test system: RPMI-8226 leukemia
A498 renal = test system: A498 renal
SNB-19 CNS = test system: SNB-19 CNS
KM12 colon = test system: KM12 colon
HCC-2998 colon = test system: HCC-2998 colon
CCRF-CEM leukemia = test system: CCRF-CEM leukemia
UO-31 renal = test system: UO-31 renal
HL-60(TB) leukemia = test system: HL-60(TB) leukemia
HOP-92 NSCLC = test system: HOP-92 NSCLC
MDA-MB-435 = test system: MDA-MB-435
RXF 393 renal = test system: RXF 393 renal
SF-539 CNS = test system: SF-539 CNS
NCI-H23 lung = test system: NCI-H23 lung
TK-10 renal = test system: TK-10 renal
U251 CNS = test system: U251 CNS
BT-549 breast = test system: BT-549 breast
K-562 leukemia = test system: K-562 leukemia
NCI-H226 lung = test system: NCI-H226 lung
OVCAR-5 ovarian = test system: OVCAR-5 ovarian

Q: What does the source list for `CN(Cc1cnc2nc(N)nc(N)c2n1)c1ccc(C(=O)NC(CCC(=O)NCC(P(=O)(O)O)P(=O)(O)O)C(=O)O)cc1` (stereo not given)?
A: TGI (EKVX NSCLC): > 100 µM; TGI (HS 578T breast): > 100 µM; TGI (T-47D breast): > 100 µM; TGI (COLO 205 colon): > 100 µM; TGI (PC-3 prostate): > 100 µM; TGI (MALME-3M melanoma): > 100 µM; TGI (OVCAR-3 ovarian): > 100 µM; TGI (NCI-H460 lung): > 100 µM; TGI (OVCAR-8 ovarian): > 100 µM; TGI (HT29 colon): > 100 µM; TGI (HCT-15 colon): > 100 µM; TGI (LOX IMVI melanoma): > 100 µM; TGI (SR leukemia): > 100 µM; TGI (SF-268 CNS): > 100 µM; TGI (UACC-62 melanoma): > 100 µM; TGI (NCI-H522 lung): > 100 µM; TGI (SK-MEL-2 melanoma): > 100 µM; TGI (MDA-N): > 100 µM; TGI (SW-620 colon): > 100 µM; TGI (A549 NSCLC): > 100 µM; TGI (MDA-MB-231 breast): > 100 µM; TGI (OVCAR-4 ovarian): > 100 µM; TGI (SN12C renal): > 100 µM; TGI (786-0 renal): > 100 µM; TGI (HCT-116 colon): > 100 µM; TGI (DU-145 prostate): > 100 µM; TGI (HOP-62 NSCLC): 68 µM; TGI (SK-OV-3 ovarian): > 100 µM; TGI (ACHN renal): > 100 µM; TGI (IGROV1 ovarian): > 100 µM; TGI (SF-295 CNS): > 100 µM; TGI (SNB-75 CNS): > 100 µM; TGI (MOLT-4 leukemia): > 100 µM; TGI (M14 melanoma): > 100 µM; TGI (SK-MEL-5 melanoma): > 100 µM; TGI (UACC-257 melanoma): > 100 µM; TGI (NCI/ADR-RES ovarian): > 100 µM

Q: Which TGI (CAKI-1 renal) does the source give for `CNC(=S)N/N=C/c1ccc([N+](=O)[O-])s1` here?
A: The TGI was > 10 µM.

Q: What about the TGI (SK-MEL-28 melanoma) of the same compound?
A: The TGI was > 10 µM.

Q: And the TGI (RPMI-8226 leukemia)?
A: Its TGI is > 10 µM.

Q: And the TGI (EKVX NSCLC)?
A: The TGI was > 10 µM.

Q: What about the TGI (HS 578T breast) of the same compound?
A: Its TGI is > 10 µM.

Q: What about the TGI (T-47D breast) of the same compound?
A: Its TGI is > 10 µM.

Q: What about the TGI (A498 renal) of the same compound?
A: Its TGI is > 10 µM.

Q: And the TGI (SNB-19 CNS)?
A: Its TGI is > 10 µM.

Q: And the TGI (KM12 colon)?
A: The TGI was > 10 µM.

Q: What about the TGI (COLO 205 colon) of the same compound?
A: Its TGI is 8.55 µM.

Q: And the TGI (PC-3 prostate)?
A: Its TGI is > 10 µM.

Q: What about the TGI (MALME-3M melanoma) of the same compound?
A: The TGI was > 10 µM.

Q: And the TGI (OVCAR-3 ovarian)?
A: Its TGI is 7.24 µM.

Q: What about the TGI (HCC-2998 colon) of the same compound?
A: Its TGI is > 10 µM.

Q: What about the TGI (CCRF-CEM leukemia) of the same compound?
A: The TGI was > 10 µM.

Q: What about the TGI (NCI-H460 lung) of the same compound?
A: The TGI was > 10 µM.

Q: And the TGI (UO-31 renal)?
A: Its TGI is > 10 µM.

Q: And the TGI (HL-60(TB) leukemia)?
A: Its TGI is > 10 µM.

Q: What about the TGI (HOP-92 NSCLC) of the same compound?
A: The TGI was > 10 µM.

Q: What about the TGI (OVCAR-8 ovarian) of the same compound?
A: Its TGI is > 10 µM.

Q: What about the TGI (MDA-MB-435) of the same compound?
A: Its TGI is > 10 µM.

Q: And the TGI (RXF 393 renal)?
A: The TGI was > 10 µM.

Q: And the TGI (HT29 colon)?
A: The TGI was > 10 µM.

Q: And the TGI (HCT-15 colon)?
A: Its TGI is > 10 µM.

Q: What about the TGI (LOX IMVI melanoma) of the same compound?
A: The TGI was > 10 µM.

Q: And the TGI (SF-539 CNS)?
A: The TGI was > 10 µM.

Q: What about the TGI (SR leukemia) of the same compound?
A: The TGI was > 10 µM.

Q: What about the TGI (SF-268 CNS) of the same compound?
A: The TGI was > 10 µM.

Q: What about the TGI (UACC-62 melanoma) of the same compound?
A: Its TGI is > 10 µM.

Q: And the TGI (NCI-H522 lung)?
A: Its TGI is > 10 µM.

Q: And the TGI (SK-MEL-2 melanoma)?
A: Its TGI is > 10 µM.

Q: What about the TGI (MDA-N) of the same compound?
A: The TGI was > 10 µM.

Q: And the TGI (SW-620 colon)?
A: The TGI was > 10 µM.

Q: And the TGI (NCI-H23 lung)?
A: The TGI was > 10 µM.

Q: What about the TGI (A549 NSCLC) of the same compound?
A: The TGI was > 10 µM.

Q: What about the TGI (MDA-MB-231 breast) of the same compound?
A: Its TGI is > 10 µM.

Q: What about the TGI (OVCAR-4 ovarian) of the same compound?
A: Its TGI is > 10 µM.

Q: And the TGI (TK-10 renal)?
A: Its TGI is > 10 µM.

Q: And the TGI (SN12C renal)?
A: The TGI was > 10 µM.

Q: What about the TGI (U251 CNS) of the same compound?
A: Its TGI is > 10 µM.

Q: What about the TGI (BT-549 breast) of the same compound?
A: The TGI was > 10 µM.

Q: What about the TGI (786-0 renal) of the same compound?
A: Its TGI is > 10 µM.

Q: And the TGI (K-562 leukemia)?
A: The TGI was > 10 µM.

Q: And the TGI (HCT-116 colon)?
A: The TGI was > 10 µM.

Q: What about the TGI (DU-145 prostate) of the same compound?
A: Its TGI is > 10 µM.

Q: And the TGI (HOP-62 NSCLC)?
A: Its TGI is > 10 µM.

Q: What about the TGI (NCI-H226 lung) of the same compound?
A: The TGI was > 10 µM.

Q: And the TGI (SK-OV-3 ovarian)?
A: The TGI was > 10 µM.

Q: And the TGI (ACHN renal)?
A: Its TGI is > 10 µM.

Q: And the TGI (OVCAR-5 ovarian)?
A: The TGI was > 10 µM.

Q: And the TGI (IGROV1 ovarian)?
A: The TGI was > 10 µM.

Q: What about the TGI (SF-295 CNS) of the same compound?
A: The TGI was > 10 µM.

Q: And the TGI (SNB-75 CNS)?
A: The TGI was > 10 µM.

Q: What about the TGI (MOLT-4 leukemia) of the same compound?
A: Its TGI is > 10 µM.

Q: And the TGI (M14 melanoma)?
A: The TGI was > 10 µM.

Q: And the TGI (SK-MEL-5 melanoma)?
A: The TGI was > 10 µM.

Q: What about the TGI (UACC-257 melanoma) of the same compound?
A: The TGI was > 10 µM.

Q: And the TGI (NCI/ADR-RES ovarian)?
A: Its TGI is > 10 µM.
